Reference: patent US8372808B2, “Suppression of glial fibrillary acidic protein” (Wisconsin Alumni Research Foundation, priority 2008, dated 2013)
Like-named read-outs stand apart in the source and are kept apart here.

Experiments:
[1] = test system: 2.2 kb human GFAP promoter; test: hGFAP promoter luciferase activity assay in 172.9 cells (primary astrocytes from dual luciferase transgenic mice); type: cell-based; details: for reductions in luciferase activity: quaternary screen, 10 days of exposure; for % GFAP reductions, luciferace expression from hGFAP promoter: tertiary screen, 48 hr exposure, at the MTDcc
Procedure: Cell-based assays were performed as four different screens using enriched cortical primary astrocyte cultures developed from transgenic mice expressing both firefly and Renilla luciferase reporter genes were generated. Briefly, the'firefly luciferase was placed under the control of a 2.2 kb human GFAP promoter to monitor GFAP transcription, and the Renilla luciferase was placed under the control of a 0.5 kb human GAPDH (glyceraldehyde 3-phosphate dehydrogenase) promoter to monitor transcription of a housekeeping gene for signal normalization. See section B, below for more detail regarding the development of transgenic mouse strains. Cells used in the following examples (e.g., the cortical primary astrocyte cells termed “172.9 cells,” described below) were developed from the transgenic mice described in section B.
Briefly, the cortices from individual pups were freed of meninges and placed into DMEM (Gibco) without serum, mechanically disassociated into single cells, suspended in medium containing DMEM supplemented with 10% fetal bovine serum (FBS; Hyclone), 100 U/ml penicillin, 100 μg/ml streptomycin (Gibco), seeded into T25 flasks (one brain per flask), and maintained in a humidified 5% CO2 atmosphere at 37° C. […] Medium was changed every 3 days. At 14-16 days in vitro (DIV), the flasks were shaken overnight at 200 rpm to remove oligodendrocytes and microglia. […] The cells were then suspended in DMEM with 10% FBS and plated (“passage 2”) on either 35 mm dishes, […], or 96-well plates (Corning) as needed. Cells were grown for varying days in vitro (DIV) at passage 2 and then used for various experiments. Tissue culture dishes and plates were pre-coated with 100 μg/ml poly-L-lysine for 1 h in a humidified 5% CO2 atmosphere at 37° C., and then allowed to air dry. […] Cell density was measured with the Vi-CELL cell counter (Beckman Coulter) or hemocytometer by the trypan-blue exclusion method. For simplicity, cells are referred to as “172.9 cells.”
Briefly, 172.9 cells were plated on poly-L coated white 96-well plates at a density of 5000 cells per well, in 100 μl DMEM with 10% FBS. At twenty-four hours, cells were exposed to the different compounds at a final concentration of 10 μM (diluted from a 50 mM stock) prepared in new medium (DMEM with 10% FBS). […] After exposure to compounds, luciferase activity in the primary and secondary screenings was determined by adding 30 μl of Bright-Glo™ reagent (Promega) to the 100 μl of media and cells of each well in the white 96-well plates with the Biomek® FX liquid handler (Beckman Coulter). After incubation for 1 minute at room temperature, signals were measured with the Safire 2 plate reader using Magellan™ software (Tecan). Other specific methods and equipment are known in the art and can be used to measure luciferase expression levels. This assay method is termed the “hGFAP promoter luciferase activity assay.” A reduction in luciferase expression as determined by this assay is termed “hGFAP promoter luciferase reduction.” For some assays that were aimed at confirming results of the initial screens, the same amount of Bright-Glo™ reagent was applied to each well in 96-well plates and signals were detected with the GloRunner™ Microplate Luminometer (Turner Biosystems) using the Dual-Glo® luciferase assay according to the manufacturer's recommendations (E1910, Promega).
In the secondary screen, cells were plated in a 96-well plate as described above for the primary screen.
Some compounds were unavailable outside of the library collections, and could not be further tested.
Each compound and concentration was analyzed in quadruplicate wells.
(§1) Compounds were tested at eight different concentrations ranging from 0-20 μM. In addition, GFAP protein levels were measured using a sandwich ELISA, which has greater sensitivity and is more accurate than the cell-based ELISA used in the primary screens.

mGFAP protein [2] = test: GFAP protein levels by ELISA in 172.9 cells treated with betulinic acid derivatives; type: cell-based, mouse; details: 7 days of treatment, 0-20 μM
Procedure: FIG. 9A-D are graphs showing the effects of betulinic acid and betulinic acid derivatives on mGFAP protein levels in 172.9 cells after 7 days of treatment. In the graphs, ester and amide forms of various compounds are paired for comparison.
172.9 cells were used to test the effects of betulinic acid and betulinic acid derivatives on GFAP promoter activity and GFAP protein levels. Experiments were performed as previously described. Each of eight compounds (D-altroside (ester); D-altroside (amide); D-xyloside (ester); D-xyloside (amide); aglycon (ester); aglycon (amide); betulinic acid; 3-amino betulinic acid) was tested at a concentration of 0 μM, 0.1 μM, 0.5 μM, 1 μM, 5 μM, 10 μM, 15 μM, and 20 μM. […] Toxicity of the compounds was also evaluated.

mGFAP protein [3] = test: cell-based GFAP protein level assay (cell-based ELISA) in 172.9 cells; parameters: species or system mouse; details: for % GFAP reductions, mGFAP protein via ELISA: tertiary screen, 48 hr exposure, at the MTDcc
172.9 cells = test: cell viability (CellTiter-Glo) / MTDcc in 172.9 cells
Procedure: Criterion for acceptable viability was >70% survival.
Cell viability was determined as follows. After exposure to each compound (duplicate wells per compound), 50 μl of CellTitier-Glo Luminescent Cell Viability Assay reagent (G7571, Promega) was added to the 100 μl of media present in each well, and the luminescent signal (reflecting intracellular ATP level) was detected with either a Victor 3-V plate reader (Perkin Elmer) or GloRunner Microplate Luminometer (Turner Biosystems). Cell viability was expressed as a percent of non-treated control cells.
A dose-response curve was created for each compound (0.1, 0.5, 1, 5, 10, 15, 20 μM) using 48 hr exposures. The MTDcc (“maximum tolerated dose—cell culture”) indicates the highest concentration that retained at least 70% cell viability. Each compound and concentration was analyzed in quadruplicate wells. EGCDG: epigallocatechin 3,5-digallate; NPPB: 5-nitro-2-phenylproplyaminobenzoic acid. As used herein, MTDcc refers to the MTD as determined by this assay under the above conditions.

GFAP protein = test: sandwich ELISA for GFAP protein in 172.9 cells, quaternary screen; type: cell-based, mouse; details: 10 days of exposure, 0-20 μM
Procedure: as §1
The extracts were harvested from each well and the total GFAP content of each well was measured by a sandwich ELISA as described below. Briefly, separate microtiter plates were coated with SMI-26 anti-GFAP mouse monoclonal antibody cocktail (1:1000, Covance, diluted in PBS) overnight at 4° C., rinsed 3 times in PBS, and then blocked with Blotto (5% nonfat milk/PBS) for 2 h at RT. Samples from the astrocyte cell lysate (20 μl per well) were loaded onto the plates and brought up to 100 μl with 0.5% Triton X-100/PBS (a buffer used for subsequent antibody incubations and rinses), and incubated with a rabbit polyclonal anti-GFAP antibody (1:5000, DAKO) overnight at 4° C. The plates were rinsed three times and then incubated with HRP-conjugated goat anti-rabbit IgG (1:30,000, Sigma) for 2 h at RT. After three final rinses, peroxidase activity was detected using the Super Signal Femto maximum Sensitivity Substrate (Pierce) with a GloRunner microplate luminometer (Turner Biosystems). The GFAP content in the samples was determined from a standard curve generated using serial dilutions of purified GFAP (Research Diagnostics).

[4] = secondary screen, 10 μM, 48 hours

SMILES | effect on GFAP promoter activity (luciferase expression driven by the hGFAP promoter) ([1]; 172.9 cells, 3 days of treatment, 0-20 μM) | effect on GFAP protein levels (mGFAP protein [2]) | reductions in luciferase activity ([1]; 0-20 μM) | suppression in the promoter assay [1, 4] | % GFAP reductions, luciferace expression from hGFAP promoter [1] | suppression in the protein assay (mGFAP protein [3]; [4]) | % GFAP reductions, mGFAP protein via ELISA (mGFAP protein [3]) | MTDcc (172.9 cells) | cell viability (172.9 cells) | reductions in GFAP protein levels (GFAP protein) | MTDcc (172.9 cells; mouse, 48 h)
C=C(C)[C@@H]1CC[C@]2(C(=O)O)CC[C@]3(C)[C@H](CCC4[C@@]5(C)CC[C@H](N)C(C)(C)C5CC[C@]43C)C12 (stereo partly drawn) [3-amino betulinic acid, (3S)-Aminobetulinic acid] | decrease in GFAP promoter activity | reduced GFAP protein levels more than the ester form |  |  |  |  |  |  |  |  | 
O=C(Oc1cc(O)cc2c1C[C@@H](OC(=O)c1cc(O)c(O)c(O)c1)[C@@H](c1cc(O)c(O)c(O)c1)O2)c1cc(O)c(O)c(O)c1 [EGCDG, epigallocatechin 3,5-digallate] |  |  | consistent reductions | significant suppression | 57% | significant suppression | 4.5% | 17.5 µM | acceptable cell viability | consistent reductions | 
CN(C)CCC=C1c2ccccc2CCc2ccccc21 [amitriptyline] |  |  | consistent reductions |  | 63% |  | 12.2% |  | acceptable cell viability | consistent reductions | >20 µM
